For 24 compounds, EC50 results are on record in patent publication EP4389749A1, “SUBSTITUTED 3,7-DIHYDRO-1H-PURINE-2,6-DIONES AND USE THEREOF” (invIOs GmbH, priority 2022, dated 2024).

In one assay the test system is CD4+ T-cells. As to the kind of experiment: Immunostimulation assay with anti-CD3/28 stimulated T-cells, CD69 expression by flow cytometry. The format is cell-based, human. Particulars: T-cell; purified human CD4+ and CD8+ T-cells, 1 µg/ml anti-CD3, 1 µg/ml anti-CD28, 16 hours, surface FACS; read-out: EC50 CD4+. The protocol: (§1) Selection of potent compounds based on structure activity relation (SAR) using human, anti-CD3/28 stimulated T-cells. Enhanced activation of stimulated T-cells is measured by CD69 expression by flowcytometry.
(§2) White blood cell enriched buffy coats were ordered from the Austrian red cross, diluted with PBS to a total volume of 480 ml, 30 ml transferred to 50ml falcons and 11 ml lymphoprep added. Cell suspensions were centrifuged for 20 min at 2200 rpm and the PBMC containing layer transferred, three times washed with PBS and counted.
(§3) 10^7 PBMCs were magnetically labeled with CD4 and CD8 microbeads according to manufacturer's instructions and separated using autoMACS device. For dose response experiments with purified CD4+CD8+ T-cells 80000 cells were seeded per 96-well flat bottom cell culture dish.
(§4) 10 mM compounds of the invention stocks were further diluted using DMSO and equal amounts transferred to T-cell containing 96-wells. Final concentrations tested were: 30 µM, 10 µM, 3 µM, 1 µM, 0.3 µM, 0.1 µM, 0.03 µM, 0.01 µM, 0.003 µM and 0.001 µM.
(§5) For the stimulation assays 80.000 purified CD4+ and CD8+ T-cells were seeded per 96-well and incubated with 1 µg/ml anti-CD3, 1 µg/ml anti-CD28 and compounds of the invention ranging from 0.001 µM to 30 µM. DMSO only wells served as control to determine minimal T-cell activation upon stimulation and CD3/28 coupled Dynabeads were used to determine the maximal activation of T-cells. Cells were cultured for 16 hours in a humidified incubator at 37 °C and 5 % CO2.
(§6) T-cells were stained for surface antigens (anti-CD4 and anti-CD8) and cell activation markers (anti-CD25 and anti-CD69). Additionally, a fixable viability dye was used to stain viable cells. Staining was performed for 15 minutes and cells analyzed using a Fortessa flow cytometer and FlowJo Software. EC50s were calculated using GraphPad Prism® and a variable slope model (agonist vs. response - variable slope).
In general terms: In flow cytometry, cells or beads pass a laser one at a time.

The subject of the next assay is CD8+ T-cells. The description is as above. The format is cell-based, human. Particulars: T-cell; purified human CD4+ and CD8+ T-cells, 1 µg/ml anti-CD3, 1 µg/ml anti-CD28, 16 hours, surface FACS; read-out: EC50 CD8+. As for the experimental part: as §1, §2, §3, §4, §5, §6

The structures appear in SMILES notation. pEC50: −log10 of the molar value. A value given as a limit tells only on which side of the number the result lay.

What is called pEC50 is the EC50 on a negative log10 scale, so that one unit is a factor of ten. For `COc1cc(-c2nc3c(c(=O)[nH]c(=O)n3CC(C)O)n2C)ccc1OCc1ccc(C#N)cc1` (stereo not drawn) [Compound 90, 4-((4-(3-(2-hydroxypropyl)-7-methyl-2,6-dioxo-2,3,6,7-tetrahydro-1H-purin-8-yl)-2-methoxyphenoxy)methyl)benzonitrile], the figures for the pEC50 with CD4+ T-cells and with CD8+ T-cells were 6.30 to 7.00 and 6.00 to 6.30, respectively.
The like results for `CC(O)Cn1c(=O)[nH]c(=O)c2c1nc(-c1ccc(Oc3ccc(C(F)(F)F)cc3)cc1)n2C` (stereo not drawn) [Compound 136, 3-(2-hydroxypropyl)-7-methyl-8-(4-(4-(trifluoromethyl)phenoxy)phenyl)-3,7-dihydro-1H-purine-2,6-dione] were, in that order, 5.30 to 6.00 and 5.30 to 6.00.
As for `CC(O)Cn1c(=O)[nH]c(=O)c2c1nc(-c1ccc(Oc3cccc(Cl)c3)cc1)n2C` (stereo not drawn) [Compound 184, 8-(4-(3-chlorophenoxy)phenyl)-3-(2-hydroxypropyl)-7-methyl-3,7-dihydro-1H-purine-2,6-dione], the pEC50 in the assay with CD4+ T-cells and in the assay on CD8+ T-cells was 5.30 to 6.00 throughout.
Regarding `Cc1ccc(COc2ccc(-c3nc4c(c(=O)[nH]c(=O)n4CC(CO)C(F)F)n3C)cc2F)cc1` (stereo not drawn) [Compound 67, 3-(3,3-difluoro-2-(hydroxymethyl)propyl)-8-(3-fluoro-4-((4-methylbenzyl)oxy)phenyl)-7-methyl-3,7-dihydro-1H-purine-2,6-dione], the pEC50 was more than 7.00 in the assay with CD4+ T-cells and 6.30 to 7.00 in the assay with CD8+ T-cells.
Take `Cc1ccc(COc2ccc(-c3nc4c(c(=O)[nH]c(=O)n4CC(O)C(F)(F)F)n3C)cc2F)cc1` (stereo not drawn) [Compound 102, 8-(3-fluoro-4-((4-methylbenzyl)oxy)phenyl)-7-methyl-3-(3,3,3-trifluoro-2-hydroxypropyl)-3,7-dihydro-1H-purine-2,6-dione]: the results for the negative logarithm of the EC50 (pEC50) in the assay on CD4+ T-cells and with CD8+ T-cells were more than 7.00 and 6.30 to 7.00, respectively.
Take `Cc1ccc(COc2ccc(-c3nc4c(c(=O)[nH]c(=O)n4CC(C)O)n3C)cc2OC(F)F)cc1` (stereo not drawn) [Compound 76, 8-(3-(difluoromethoxy)-4-((4-methylbenzyl)oxy)phenyl)-3-(2-hydroxypropyl)-7-methyl-3,7-dihydro-1H-purine-2,6-dione]: the pEC50 in the assay with CD4+ T-cells and with CD8+ T-cells was more than 7.00 in each case.
Regarding `CC(O)Cn1c(=O)[nH]c(=O)c2c1nc(-c1ccc(Oc3ccc4ccccc4c3)cc1)n2C` (stereo not drawn) [Compound 186, 3-(2-hydroxypropyl)-7-methyl-8-(4-(naphthalen-2-yloxy)phenyl)-3,7-dihydro-1H-purine-2,6-dione], the pEC50 with CD4+ T-cells and in the assay on CD8+ T-cells was 6.30 to 7.00 each time.
Take `COc1cccc(Oc2ccc(-c3nc4c(c(=O)[nH]c(=O)n4CC(C)O)n3C)cc2)c1` (stereo not drawn) [Compound 182, 3-(2-hydroxypropyl)-8-(4-(3-methoxyphenoxy)phenyl)-7-methyl-3,7-dihydro-1H-purine-2,6-dione]: the pEC50 with CD4+ T-cells and with CD8+ T-cells was 5.30 to 6.00 throughout.
Regarding `CC(CO)Cn1c(=O)[nH]c(=O)c2c1nc(-c1ccc(Oc3ccc(OC(F)F)cc3)c(Cl)c1)n2C` (stereo not drawn) [Compound 151, 8-(3-chloro-4-(4-(difluoromethoxy)phenoxy)phenyl)-3-(3-hydroxy-2-methylpropyl)-7-methyl-3,7-dihydro-1H-purine-2,6-dione], the pEC50 in the assay with CD4+ T-cells and in the assay on CD8+ T-cells was 6.30 to 7.00 in each case.
`Cc1ccc(COc2ccc(-c3nc4c(c(=O)[nH]c(=O)n4CC(O)C(F)F)n3C)cc2F)cc1` (stereo not drawn) [Compound 80, 3-(3,3-difluoro-2-hydroxypropyl)-8-(3-fluoro-4-((4-methylbenzyl)oxy)phenyl)-7-methyl-3,7-dihydro-1H-purine-2,6-dione]: the negative logarithm of the EC50 (pEC50) in the assay with CD4+ T-cells and with CD8+ T-cells was more than 7.00 in each case.
For the compound `Cn1c(-c2ccc(OCc3ccccc3)c(OC(F)(F)F)c2)nc2c1c(=O)[nH]c(=O)n2CC(O)CF` (stereo not drawn) [Compound 117, 8-(4-(benzyloxy)-3-(trifluoromethoxy)phenyl)-3-(3-fluoro-2-hydroxypropyl)-7-methyl-3,7-dihydro-1H-purine-2,6-dione], the pEC50 in the assay with CD4+ T-cells and in the assay with CD8+ T-cells was more than 7.00 each time.
Turning to `CC(O)Cn1c(=O)[nH]c(=O)c2c1nc(-c1ccc(OCc3ccccc3)c(C(F)(F)F)c1)n2C` (stereo not drawn) [Compound 98, 8-(4-(benzyloxy)-3-(trifluoromethyl)phenyl)-3-(2-hydroxypropyl)-7-methyl-3,7-dihydro-1H-purine-2,6-dione], the pEC50 in the assay with CD4+ T-cells and in the assay on CD8+ T-cells was 6.30 to 7.00 throughout.
Turning to `Cn1c(-c2ccc(Oc3ccc(OC(F)F)cc3)cc2)nc2c1c(=O)[nH]c(=O)n2CC(O)C(F)(F)F` (stereo not drawn) [Compound 165, 8-(4-(4-(difluoromethoxy)phenoxy)phenyl)-7-methyl-3-(3,3,3-trifluoro-2-hydroxypropyl)-3,7-dihydro-1H-purine-2,6-dione], the pEC50 in the assay on CD4+ T-cells and in the assay on CD8+ T-cells was 5.30 to 6.00 each time.
In the case of `Cc1ccc(COc2ccc(-c3nc4c(c(=O)[nH]c(=O)n4CC(C)O)n3C)cc2C(F)(F)F)cc1` (stereo not drawn) [Compound 123, 3-(2-hydroxypropyl)-7-methyl-8-(4-((4-methylbenzyl)oxy)-3-(trifluoromethyl)phenyl)-3,7-dihydro-1H-purine-2,6-dione], the pEC50 in the assay on CD4+ T-cells and in the assay with CD8+ T-cells was more than 7.00 each time.
On to `COc1cc(-c2nc3c(c(=O)[nH]c(=O)n3CC(O)C(F)(F)F)n2C)ccc1OCc1ccc(C(F)F)cc1` (stereo not drawn) [Compound 75, 8-(4-((4-(difluoromethyl)benzyl)oxy)-3-methoxyphenyl)-7-methyl-3-(3,3,3-trifluoro-2-hydroxypropyl)-3,7-dihydro-1H-purine-2,6-dione], for which the pEC50 in the assay with CD4+ T-cells and with CD8+ T-cells was 6.30 to 7.00 each time.
`COc1cc(-c2nc3c(c(=O)[nH]c(=O)n3CC(O)C(F)(F)F)n2C)ccc1OCc1ccc(C)cc1` (stereo not drawn) [Compound 121, 8-(3-methoxy-4-((4-methylbenzyl)oxy)phenyl)-7-methyl-3-(3,3,3-trifluoro-2-hydroxypropyl)-3,7-dihydro-1H-purine-2,6-dione]: the pEC50 in the assay with CD4+ T-cells and with CD8+ T-cells was more than 7.00 each time.
As for `COc1cc(-c2nc3c(c(=O)[nH]c(=O)n3CC(O)C(F)F)n2C)ccc1OCc1ccc(C)cc1` (stereo not drawn) [Compound 19, 3-(3,3-difluoro-2-hydroxypropyl)-8-(3-methoxy-4-((4-methylbenzyl)oxy)phenyl)-7-methyl-3,7-dihydro-1H-purine-2,6-dione], the pEC50 in the assay with CD4+ T-cells was 6.00 to 6.30; in the assay on CD8+ T-cells, more than 7.00.
As to `COc1cc(-c2nc3c(c(=O)[nH]c(=O)n3CC(O)CF)n2C)ccc1OCc1ccc(C(F)F)cc1` (stereo not drawn) [Compound 73, 8-(4-((4-(difluoromethyl)benzyl)oxy)-3-methoxyphenyl)-3-(3-fluoro-2-hydroxypropyl)-7-methyl-3,7-dihydro-1H-purine-2,6-dione], the pEC50 in the assay with CD4+ T-cells and in the assay with CD8+ T-cells was 6.00 to 6.30 throughout.
For the compound `CC(O)Cn1c(=O)[nH]c(=O)c2c1nc(-c1ccc(Oc3ccc(Cl)cc3)c(Cl)c1)n2C` (stereo not drawn) [Compound 180, 8-(3-chloro-4-(4-chlorophenoxy)phenyl)-3-(2-hydroxypropyl)-7-methyl-3,7-dihydro-1H-purine-2,6-dione], the pEC50 in the assay on CD4+ T-cells was 5.30 to 6.00; with CD8+ T-cells, 6.00 to 6.30.
Regarding `COCC(O)Cn1c(=O)[nH]c(=O)c2c1nc(-c1ccc(OCc3ccccc3)c(OC)c1)n2C` (stereo not drawn) [Compound 54, 8-(4-(benzyloxy)-3-methoxyphenyl)-3-(2-hydroxy-3-methoxypropyl)-7-methyl-3,7-dihydro-1H-purine-2,6-dione], the pEC50 in the assay with CD4+ T-cells and in the assay with CD8+ T-cells was 5.30 to 6.00 each time.
As for `COc1cc(-c2nc3c(c(=O)[nH]c(=O)n3CC(C)O)n2C)ccc1OCc1ccc(F)cc1` (stereo not drawn) [Compound 87, 8-(4-((4-fluorobenzyl)oxy)-3-methoxyphenyl)-3-(2-hydroxypropyl)-7-methyl-3,7-dihydro-1H-purine-2,6-dione], the figures for the pEC50 with CD4+ T-cells and with CD8+ T-cells were 6.00 to 6.30 and 6.30 to 7.00, respectively.
Regarding `COc1cc(-c2nc3c(c(=O)[nH]c(=O)n3CC(O)C(F)F)n2C)ccc1OCc1ccc(C(F)F)cc1` (stereo not drawn) [Compound 79, 3-(3,3-difluoro-2-hydroxypropyl)-8-(4-((4-(difluoromethyl)benzyl)oxy)-3-methoxyphenyl)-7-methyl-3,7-dihydro-1H-purine-2,6-dione], the pEC50 in the assay on CD4+ T-cells and with CD8+ T-cells was 6.30 to 7.00 throughout.
As for `COc1cc(-c2nc3c(c(=O)[nH]c(=O)n3CC(O)CF)n2C)ccc1OCc1ccccc1` (stereo not drawn) [Compound 58, 8-(4-(benzyloxy)-3-methoxyphenyl)-3-(3-fluoro-2-hydroxypropyl)-7-methyl-3,7-dihydro-1H-purine-2,6-dione], the pEC50 with CD4+ T-cells was 6.00 to 6.30; in the assay on CD8+ T-cells it was 6.30 to 7.00.
The like results for `COc1cc(-c2nc3c(c(=O)[nH]c(=O)n3CC(O)CO)n2C)ccc1OCc1ccccc1` (stereo not drawn) [Compound 55, 8-(4-(benzyloxy)-3-methoxyphenyl)-3-(2,3-dihydroxypropyl)-7-methyl-3,7-dihydro-1H-purine-2,6-dione] were, in that order, 5.30 to 6.00 and 5.30 to 6.00.
